In brackets after ≈: the same amount, converted by molar mass. Activity calls are given as the source filed them.

For data set [1], the target named is T1, Transient receptor potential cation channel subfamily M member 5 (Homo sapiens, UniProt Q9NZQ8).
T1 sequence (Q9NZQ8 whole entry): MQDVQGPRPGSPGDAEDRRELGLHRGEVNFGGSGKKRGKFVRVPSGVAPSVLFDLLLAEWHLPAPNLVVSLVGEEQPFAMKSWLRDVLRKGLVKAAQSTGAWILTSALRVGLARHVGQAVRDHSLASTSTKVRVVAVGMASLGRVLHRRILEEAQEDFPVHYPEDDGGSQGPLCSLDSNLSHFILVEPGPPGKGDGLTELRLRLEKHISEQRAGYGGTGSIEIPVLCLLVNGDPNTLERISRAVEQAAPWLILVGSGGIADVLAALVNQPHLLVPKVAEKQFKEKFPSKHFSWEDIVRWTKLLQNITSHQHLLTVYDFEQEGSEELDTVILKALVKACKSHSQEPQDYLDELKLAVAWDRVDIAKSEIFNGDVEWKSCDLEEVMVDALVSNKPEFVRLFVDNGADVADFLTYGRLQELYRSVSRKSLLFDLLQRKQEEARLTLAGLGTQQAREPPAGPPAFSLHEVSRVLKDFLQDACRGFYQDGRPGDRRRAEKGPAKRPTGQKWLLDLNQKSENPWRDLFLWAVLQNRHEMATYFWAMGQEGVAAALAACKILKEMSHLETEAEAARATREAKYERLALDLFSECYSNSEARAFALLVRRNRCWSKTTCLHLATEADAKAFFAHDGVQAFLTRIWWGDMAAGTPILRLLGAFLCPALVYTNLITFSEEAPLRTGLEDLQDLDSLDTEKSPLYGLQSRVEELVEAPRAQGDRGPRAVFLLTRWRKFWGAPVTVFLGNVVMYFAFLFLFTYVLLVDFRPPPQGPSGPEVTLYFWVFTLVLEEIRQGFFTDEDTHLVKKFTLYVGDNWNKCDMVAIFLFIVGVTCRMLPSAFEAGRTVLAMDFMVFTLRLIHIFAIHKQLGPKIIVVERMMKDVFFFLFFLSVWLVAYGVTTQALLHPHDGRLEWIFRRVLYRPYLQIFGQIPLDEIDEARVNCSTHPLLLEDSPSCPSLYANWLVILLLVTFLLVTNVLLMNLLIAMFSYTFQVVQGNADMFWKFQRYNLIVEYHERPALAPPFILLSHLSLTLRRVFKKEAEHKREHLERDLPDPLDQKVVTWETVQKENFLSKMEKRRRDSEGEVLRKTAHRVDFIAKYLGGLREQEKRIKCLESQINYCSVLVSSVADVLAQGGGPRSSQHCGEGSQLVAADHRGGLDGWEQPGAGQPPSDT
Description: Agonist activity at human TRPM5 in HEK293T cells by FLIPR based assay. Type of data set: cell-based.

Data set [2] addresses T1, Transient receptor potential cation channel subfamily M member 5. Description: Agonist activity at human TRPM5 expressed in CHO-K1 cells assessed as increase in relative fluorescence unit measured for 2 mins by FLIPR based membrane potential assay. Type of data set: cell-based.
The target in data set [3] is Transient receptor potential cation channel subfamily M member 4 (Homo sapiens, UniProt Q8TD43). The data set is described as follows: Agonist activity at human TRPM4 expressed in CHO-K1 cells assessed as increase in relative fluorescence unit by measuring membrane potential by FLIPR assay. In kind it is cell-based.
Data set [4] can be described thus: Solubility of the compound in JP1 solution. Type of data set: physicochemical.
Data set [5] in a line: Half-life in Sprague-Dawley rat. Type of data set: ADME. As to conditions: in vivo.
Data set [6] can be described thus: Metabolic stability in human liver microsomes assessed as intrinsic clearance. In kind it is ADME, Microsome. As to conditions: read-out: CLH.
Data set [7] in a line: Metabolic stability in human liver microsomes assessed as half life. In kind it is ADME, Microsome. To be noted: liver microsomes.
The nature of data set [8]: Intrinsic clearance in Sprague-Dawley rat. Type of data set: ADME.
Data set [9] addresses T1, Transient receptor potential cation channel subfamily M member 5. The data set is described as follows: Agonist activity at human TRPM5 expressed in HEK cells by whole cell electrophysiology method. In kind it is cell-based.
Data set [10] can be described thus: Solubility of the compound in JP2 solution. Type of data set: physicochemical.
Data set [11] addresses T1, Transient receptor potential cation channel subfamily M member 5. Description: Agonist activity at TRPM5 (unknown origin).
For data set [12], the target named is T2, Transient receptor potential cation channel subfamily M member 5 (Homo sapiens) (UniProt Q9NZQ8).
T2 sequence (whole entry): T1 sequence (Q9NZQ8 whole entry)
Description: Agonist activity at human TRPM5 expressed in human Caco-2 cells assessed as increase in acetylcholine release at 50 uM incubated for 18 hrs by mass spectrometric analysis. As to conditions: filed as agonist. Type of data set: cell-based.

In data set [13] the test system is Mus musculus. Description: Induction of gastrointestinal motility in CD-1 mouse assessed as increase in fecal weight at 10 to 100 mg/kg, po measured upto 6 hrs. Type of data set: functional, organism-based. To be noted: dose 10-100 mg/kg.
The subject of data set [14] is Mus musculus. The data set is described as follows: Induction of gastrointestinal motility in CD-1 mouse assessed as increase in fecal water content at 10 to 100 mg/kg, po measured upto 6 hrs. Type of data set: functional, organism-based. To be noted: dose 10-100 mg/kg.
Data set [15] addresses T3, Transient receptor potential cation channel subfamily M member 5 (Mus musculus) (UniProt Q9JJH7).
T3 sequence (whole entry): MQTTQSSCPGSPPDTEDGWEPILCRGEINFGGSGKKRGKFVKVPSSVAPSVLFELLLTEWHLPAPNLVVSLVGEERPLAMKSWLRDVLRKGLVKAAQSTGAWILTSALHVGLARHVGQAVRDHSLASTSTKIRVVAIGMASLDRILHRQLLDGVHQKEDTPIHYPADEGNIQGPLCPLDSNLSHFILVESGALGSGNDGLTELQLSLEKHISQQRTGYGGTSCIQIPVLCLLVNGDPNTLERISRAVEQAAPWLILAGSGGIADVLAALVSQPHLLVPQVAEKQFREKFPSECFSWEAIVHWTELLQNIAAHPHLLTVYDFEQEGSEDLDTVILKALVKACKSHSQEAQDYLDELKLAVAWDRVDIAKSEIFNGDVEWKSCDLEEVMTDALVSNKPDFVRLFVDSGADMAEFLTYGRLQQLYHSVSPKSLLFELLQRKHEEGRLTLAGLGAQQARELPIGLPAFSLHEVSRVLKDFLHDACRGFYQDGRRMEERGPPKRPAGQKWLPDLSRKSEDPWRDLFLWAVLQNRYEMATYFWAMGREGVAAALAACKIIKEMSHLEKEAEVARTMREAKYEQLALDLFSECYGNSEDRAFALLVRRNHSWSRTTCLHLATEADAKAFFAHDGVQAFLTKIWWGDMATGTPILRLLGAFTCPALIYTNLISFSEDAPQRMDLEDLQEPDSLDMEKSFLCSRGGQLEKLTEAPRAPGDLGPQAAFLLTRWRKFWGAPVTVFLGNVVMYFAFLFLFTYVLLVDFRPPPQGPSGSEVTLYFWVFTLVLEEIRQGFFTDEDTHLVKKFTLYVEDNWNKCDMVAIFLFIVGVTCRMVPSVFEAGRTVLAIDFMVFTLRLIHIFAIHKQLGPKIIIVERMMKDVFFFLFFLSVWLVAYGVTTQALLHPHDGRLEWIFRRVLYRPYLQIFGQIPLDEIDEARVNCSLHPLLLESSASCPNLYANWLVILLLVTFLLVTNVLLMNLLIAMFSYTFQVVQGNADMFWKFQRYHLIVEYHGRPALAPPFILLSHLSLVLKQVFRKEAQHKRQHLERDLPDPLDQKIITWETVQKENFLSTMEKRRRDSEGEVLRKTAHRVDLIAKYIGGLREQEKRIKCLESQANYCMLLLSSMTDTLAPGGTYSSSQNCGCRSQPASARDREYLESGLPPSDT
Description: Binding affinity to mouse colon mucosal epithelium TRPM5 assessed as increase in short circuit current. In kind it is tissue-based. To be noted: Colonic epithelium, filed as agonist.

Chain of Transient receptor potential cation channel subfamily M member 4 (Q8TD43 whole entry): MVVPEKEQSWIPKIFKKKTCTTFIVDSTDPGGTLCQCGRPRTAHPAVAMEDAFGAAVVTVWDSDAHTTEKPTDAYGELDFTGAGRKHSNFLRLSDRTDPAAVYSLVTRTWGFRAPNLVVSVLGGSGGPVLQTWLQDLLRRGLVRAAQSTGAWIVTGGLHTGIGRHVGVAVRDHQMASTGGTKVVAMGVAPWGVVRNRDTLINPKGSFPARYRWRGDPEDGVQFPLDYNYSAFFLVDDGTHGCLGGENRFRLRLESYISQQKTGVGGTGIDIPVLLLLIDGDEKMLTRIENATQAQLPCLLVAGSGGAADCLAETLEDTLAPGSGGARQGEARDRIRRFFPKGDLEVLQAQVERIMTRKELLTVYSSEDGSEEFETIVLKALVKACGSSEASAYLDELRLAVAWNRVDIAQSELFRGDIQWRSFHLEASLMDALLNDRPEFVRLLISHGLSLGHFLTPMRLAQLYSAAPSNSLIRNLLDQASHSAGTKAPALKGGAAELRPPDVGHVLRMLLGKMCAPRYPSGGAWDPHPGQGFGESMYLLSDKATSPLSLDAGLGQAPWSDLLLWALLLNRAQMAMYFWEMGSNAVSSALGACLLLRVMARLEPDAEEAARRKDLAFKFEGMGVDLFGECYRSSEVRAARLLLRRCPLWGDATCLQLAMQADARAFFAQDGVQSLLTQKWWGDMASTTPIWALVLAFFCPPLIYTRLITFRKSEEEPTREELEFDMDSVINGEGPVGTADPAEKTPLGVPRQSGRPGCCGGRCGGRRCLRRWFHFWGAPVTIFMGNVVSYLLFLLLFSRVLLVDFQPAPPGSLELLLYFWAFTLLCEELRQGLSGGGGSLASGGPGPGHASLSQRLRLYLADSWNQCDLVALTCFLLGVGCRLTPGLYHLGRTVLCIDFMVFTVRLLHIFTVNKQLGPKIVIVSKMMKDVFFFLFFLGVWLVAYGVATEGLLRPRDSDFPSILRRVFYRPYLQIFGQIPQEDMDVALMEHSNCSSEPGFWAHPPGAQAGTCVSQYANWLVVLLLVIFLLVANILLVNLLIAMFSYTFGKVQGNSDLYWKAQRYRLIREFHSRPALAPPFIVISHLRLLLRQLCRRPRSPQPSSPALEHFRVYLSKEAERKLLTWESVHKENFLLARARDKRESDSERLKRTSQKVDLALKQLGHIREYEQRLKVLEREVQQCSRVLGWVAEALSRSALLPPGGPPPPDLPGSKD

A word on the EC50: it is the concentration at which the effect is half-maximal. `C=CC(C)(C)c1cc2cc3c(cc2oc1=O)O[C@H](C(C)(C)OC(C)=O)C3`: the midpoint of the response in [1], the EC50, lay at 27 µM.

For the compound `OC[C@@H]1Cc2ccc(Cl)cc2[C@H](c2ccccc2)N1` (racemic), the EC50 in data set [2] was 0.794 µM; in data set [3] it was 24.5 µM.

For `Cc1ccccc1[C@@H]1N[C@H](CO)Cc2ccc(Cl)cc21`, in [2], the EC50 was above 31.6 µM.

As for `OC[C@@H]1Cc2cc(Cl)cnc2[C@H](c2cc(F)cc(Cl)c2)N1`, in data set [2], the EC50 was 3.16 µM.

Turning to `OC[C@@H]1Cc2ccc(Cl)cc2[C@H](c2cc(Cl)cc(Cl)c2)N1`, the half-maximal effective concentration (EC50) was 0.2 µM in data set [2] and 8.91 µM in data set [3].

Consider `CN1[C@H](CO)Cc2ccc(Cl)cc2[C@@H]1c1ccccc1`, for which the EC50 in data set [2] was above 31.6 µM.

As for `OC[C@@H]1Cc2ccc(Cl)cc2[C@H](c2ccccn2)N1`, the EC50 in data set [2] is 7.94 µM.

`COC[C@@H]1Cc2ccc(Cl)cc2[C@H](c2ccccc2)N1`: the EC50 in [2] is 15.8 µM.

`OC[C@@H]1Cc2ccc(Cl)cc2[C@H](c2cc(F)cc(F)c2)N1`: the EC50 is 0.2 µM in data set [2] and 0.589 µM in data set [3].

Regarding `OC[C@@H]1Cc2ccc(Cl)cc2[C@H](c2cccc(Cl)c2)N1`, the values for the EC50 in [2] and in data set [3] were 0.501 µM and 1.82 µM, respectively.

For the compound `OC[C@H]1Cc2ccc(Cl)cc2[C@H](c2ccccc2)N1`, the EC50 in [2] is above 31.6 µM.

As for `Cc1ccc([C@@H]2N[C@H](CO)Cc3ccc(Cl)cc32)cc1`, the EC50 in data set [2] was 6.31 µM.

In the case of `OCc1cc2ccc(Cl)cc2c(-c2ccccc2)n1`, the EC50 in data set [2] was above 31.6 µM.

Turning to `OC[C@@H]1Cc2cc(Cl)ccc2[C@H](c2ccccc2Cl)N1`, in data set [2], the EC50 was 1.58 µM.

Take `Cc1cc([C@@H]2N[C@H](CO)Cc3ccc(Cl)cc32)ccc1Cl`: the EC50 is 1 µM in data set [2] and 25.7 µM in [3].

Take `OC[C@@H]1Cc2cccc(Cl)c2[C@H](c2ccccc2)N1`: the EC50 in data set [2] is above 31.6 µM.

In general, solubility refers to how much of the substance goes into solution per volume. Low values mean a poorly soluble substance, high ones a readily soluble substance. For orientation: half-life means the time needed for the level to fall by half in the phase considered. In the case of `C=CCNC(=S)/N=c1/sc2ccccc2n1C`, the solubility in data set [4] is 1.7 µM (≈ 0.448 µg/mL); in data set [10], 0.9 µM (≈ 0.237 µg/mL). In addition, the half-life in data set [5] stood at 2.6 min; in data set [7], 4.1 min. Further, the figures for the CLint scaled in [6] and in [8] were 338 mL/min/kg and 540 mL/min/kg, respectively. In addition, the EC50 in [2] is 0.631 µM; in [9], 9.4 µM; in [11], 10 µM.

On to `OC[C@@H]1Cc2ccc(Cl)cc2[C@H](c2cccc(F)c2)N1`, for which the EC50 in data set [2] was 0.316 µM; in data set [3] it was 1.7 µM.

`N#Cc1ccc2c(c1)[C@H](c1cc(F)cc(Cl)c1)N[C@H](CO)C2`: the EC50 in data set [2] was 7.94 µM.

As for `OC[C@@H]1Cc2ccc(Cl)cc2[C@H](c2cccnc2)N1`, the EC50 in data set [2] is 20 µM.

Turning to `OC[C@@H]1Cc2ccc(Cl)cc2[C@H](c2cc(F)cc(Cl)c2)N1`, the EC50 in [2] was 0.1 µM; in [3] it was 1.35 µM.

For `Clc1cnc(CNc2cc3sncc3cc2Cl)s1`, in data set [12], the result was Active.

Take `OC[C@@H]1Cc2cc(Cl)ccc2[C@H](c2ccccc2)N1`: the EC50 in [2] is 0.501 µM; in data set [3] it was 26.3 µM.

Turning to `OC[C@@H]1Cc2ccc(Cl)cc2[C@@H](c2ccccc2)N1` (racemic), the EC50 in data set [2] is above 31.6 µM.

`N#Cc1ccc2c(c1)C[C@@H](CO)N[C@H]2c1cc(F)cc(Cl)c1`: in data set [2], the EC50 was 20 µM.

For `OC[C@@H]1Cc2cc(Cl)c(F)cc2[C@H](c2ccccc2)N1`, the EC50 in data set [2] was 0.316 µM.

Regarding `Cc1ccc2c(c1)C[C@@H](CO)N[C@H]2c1ccccc1`, the EC50 in [2] was 10 µM.

`OC[C@@H]1Cc2c(Cl)cccc2[C@H](c2ccccc2)N1`: in [2], the EC50 is 1.26 µM.

For `OC[C@@H]1Cc2cc(Cl)ccc2[C@H](c2cc(F)cc(Cl)c2)N1`, the EC50 in [2] is 0.0631 µM.

In the case of `OC[C@@H]1Cc2cc(Cl)ncc2[C@H](c2cc(F)cc(Cl)c2)N1`, the EC50 in data set [2] is 2 µM.

As to `OC[C@@H]1Cc2ccccc2[C@H](c2ccccc2)N1`, in [2], the EC50 was above 31.6 µM.

For `OC[C@@H]1Cc2cc(Cl)c(Cl)cc2[C@H](c2ccccc2)N1`, in data set [2], the EC50 is 0.0501 µM.

As to `Cc1ccc2c(c1)[C@H](c1ccccc1)N[C@H](CO)C2`, the EC50 in [2] was 10 µM.

On to `N#Cc1ccc2c(c1)C[C@H](CO)N[C@@H]2c1cc(F)cc(Cl)c1`, for which the outcome in [13], in data set [12], in data set [14] and in data set [15] was Active.

As for `N#Cc1cc(F)cc([C@@H]2N[C@H](CO)Cc3cc(Cl)ccc32)c1`, the EC50 in data set [2] is 0.251 µM.

As for `OC[C@@H]1Cc2ccc(Cl)cc2[C@H](c2ccncc2)N1`, in [2], the EC50 is above 31.6 µM.

Values taken from ChEMBL document CHEMBL5150049, “The discovery of (1R, 3R)-1-(3-chloro-5-fluorophenyl)-3-(hydroxymethyl)-1,2,3,4-tetrahydroisoquinoline-6-carbonitrile, a potent and selective agonist of human transient receptor potential cation channel subfamily m member 5 (TRPM5) and evaluation of as a potential gastrointestinal prokinetic agent” (Bioorg Med Chem, 2022).
